According to ChEMBL document CHEMBL5120939, “Novel Isoindolinone-Based Analogs of the Natural Cyclic Peptide Fenestin A: Synthesis and Antitumor Activity” (ACS Med Chem Lett, 2022):

How the values were obtained:
Format in all cases: functional
HeLa [1] = assay: Induction of apoptosis in human HeLa cells assessed as necrotic cells at 26.1 uM incubated for 48 hrs by annexinV-FITC/propidium iodide staining based flow cytometry analysis (reference value: 0.0%)
HeLa [2] = assay: Induction of apoptosis in human HeLa cells assessed as early apoptotic cells at 26.1 uM incubated for 48 hrs by annexinV-FITC/propidium iodide staining based flow cytometry analysis (reference value: 0.1%)
HeLa [3] = assay: Induction of apoptosis in human HeLa cells assessed as viable cells at 26.1 uM incubated for 48 hrs by annexinV-FITC/propidium iodide staining based flow cytometry analysis (reference value: 99.8%); conditions: read-out: Activity
HeLa [4] = assay: Induction of cell cycle arrest in human HeLa cells assessed as <2N cells at 12.3 uM incubated for 12 hrs by RNAse A/PI staining based flow cytometric analysis (reference value: 41.6%)
HeLa [5] = assay: Induction of cell cycle arrest in human HeLa cells assessed as 4N cells at 12.3 uM incubated for 12 hrs by RNAse A/PI staining based flow cytometric analysis (reference value: 5.37%)
HeLa [6] = assay: Induction of cell cycle arrest in human HeLa cells assessed as >4N cells at 12.3 uM incubated for 12 hrs by RNAse A/PI staining based flow cytometric analysis (reference value: 2.61%)
HeLa [7] = assay: Induction of cell cycle arrest in human HeLa cells assessed as <2N cells at 12.3 uM incubated for 24 hrs by RNAse A/PI staining based flow cytometric analysis (reference value: 41.6%)
HeLa [8] = assay: Induction of cell cycle arrest in human HeLa cells assessed as 2N cells at 12.3 uM incubated for 24 hrs by RNAse A/PI staining based flow cytometric analysis (reference value: 29.9%)
HeLa [9] = assay: Induction of cell cycle arrest in human HeLa cells assessed as 4N cells at 12.3 uM incubated for 24 hrs by RNAse A/PI staining based flow cytometric analysis (reference value: 5.37%)
HeLa [10] = assay: Induction of cell cycle arrest in human HeLa cells assessed as S phase cells at 6.2 uM incubated for 48 hrs by RNAse A/PI staining based flow cytometric analysis (reference value: 20.5%)
HeLa [11] = assay: Induction of cell cycle arrest in human HeLa cells assessed as 2N cells at 24.6 uM incubated for 48 hrs by RNAse A/PI staining based flow cytometric analysis (reference value: 29.9%)

## CC[C@H](C)[C@@H]1NC(=O)[C@H](CC(C)C)NC(=O)[C@@H]2CSCN2C(=O)[C@@H]2CSCN2C(=O)CN2C(=O)c3ccccc3[C@@]2(O)CN(Cc2ccccc2)C1=O
HeLa [1]
  Activity: 0.9%
HeLa [2]
  Activity: 34.6%
HeLa [3]
  viability at 26.1 µM: 58%
HeLa [4]
  Activity: 33.1%
HeLa [5]
  Activity: 16.8%
HeLa [6]
  Activity: 9.83%
HeLa [7]
  Activity: 33%
HeLa [8]
  Activity: 20.6%
HeLa [9]
  Activity: 25.1%
HeLa [10]
  Activity: 11.1%
HeLa [11]
  Activity: 28.8%
